Data: US20240417411A1, “COMPOUNDS AND METHODS FOR TREATMENT OF VIRAL INFECTIONS” (priority 2023, published 2024)
Read-outs that look alike come from different tables or passages of the source.

Key:
[1] = tested on: SARS-CoV2-NLuc; experiment: microbe, parasite or virus in culture; assay type: cell-based, SARS Coronavirus 2; conditions: Severe acute respiratory syndrome coronavirus 2, 48 h, read-out: SARS-CoV2 EC50 (nM)
[2] = in vitro; assay type: in vitro ADME; conditions: human, s9, pH 7.4
Method in brief: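 Test compounds at 2 μM final were incubated in a GI S9 reaction mixture, reactions being started by substrate addition. Diluted supernatants were quantified by LC/MS on a Q-Exactive using analyte/internal standard peak area ratios, with 0.1% formic acid water/acetonitrile gradient elution and 5 ppm mass tolerance.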

[3] = tested on: RSV-Luc5; experiment: microbe, parasite or virus in culture; assay type: cell-based; conditions: human respiratory syncytial virus, NHBE, 72 h, read-out: RSV NHBE EC50 (nM)
[4] = in vitro; assay type: cell-based; conditions: human
Method in brief: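 Uninfected MT4 cells cultured with compound 4–5 days at 37 °C, equilibrated to 25 °C, and viability read by CellTiter-Glo luminescence. Untreated and 2 μM puromycin-treated cells defined 100% and 0% viability; CC50, the concentration reducing viability by 50%, from non-linear regression.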

[5] = tested on: Caco-2 cells (clone C2BBe1); conditions: human, Caco-2

| SMILES | EC50 [1] | half-life at 2 μM [2] | Human Plasma T1/2 (2 μM) | EC50 [3] | CC50 [4] | Caco2 A to B [5] | Caco2 B to A [5] | Human Plasma T1/2 |
| --- | --- | --- | --- | --- | --- | --- | --- | --- |
| CC(C)OC(=O)OC[C@H]1O[C@@](C#N)(c2ccc3c(N)ncnn23)[C@@H]2OC(=O)CCCCC(=O)O[C@@H]21 [Compound C7, ((8aR,9R,11R,11aR)-11-(4-aminopyrrolo[2,1-f][1,2,4]triazin-7-yl)-11-cyano-2,7-dioxodecahydrofuro[3,4-b][1,4]dioxecin-9-yl)methyl isopropyl carbonate] | > 50000 nM | 35.8 s | 180 s | 2730 nM | > 50 µM | 4.31 | 9.89 |  |
| COC(=O)OC[C@H]1O[C@@](C#N)(c2ccc3c(N)ncnn23)[C@@H]2OC(=O)CCCC(=O)O[C@@H]21 [Compound C13, ((7aR,8R,10R,10aR)-10-(4-aminopyrrolo[2,1-f][1,2,4]triazin-7-yl)-10-cyano-2,6-dioxooctahydro-2H-furo[3,4-b][1,4]dioxonin-8-yl)methyl methyl carbonate] | 4100 nM | 36.8 s | 180 s | 30000 nM | > 50 µM | 2.1 | 5.18 |  |
| CCOC(=O)OC[C@H]1O[C@@](C#N)(c2ccc3c(N)ncnn23)[C@@H]2OC(=O)CCCC(=O)O[C@@H]21 [Compound C12, ((7aR,8R,10R,10aR)-10-(4-aminopyrrolo[2,1-f][1,2,4]triazin-7-yl)-10-cyano-2,6-dioxooctahydro-2H-furo[3,4-b][1,4]dioxonin-8-yl)methyl ethyl carbonate] | 5880 nM | 37.3 s |  | 7940 nM | > 50 µM | 1.94 | 5.31 | 180 s |
| COC(C)(C)COC(=O)OC[C@H]1O[C@@](C#N)(c2ccc3c(N)ncnn23)[C@@H]2OC(=O)CCCC(=O)O[C@@H]21 [Compound C22, ((7aR,8R,10R,10aR)-10-(4-aminopyrrolo[2,1-f][1,2,4]triazin-7-yl)-10-cyano-2,6-dioxooctahydro-2H-furo[3,4-b][1,4]dioxonin-8-yl)methyl (2-methoxy-2-methylpropyl) carbonate] | 5110 nM | 34.1 s | 180 s | 4850 nM | > 50 µM | 0.88 | 3.46 |  |
| CC(C)C(=O)OC[C@H]1O[C@@](C#N)(c2ccc3c(N)ncnn23)[C@@H]2OC(=O)CCCC(=O)O[C@@H]21 [Compound C54, ((7aR,8R,10R,10aR)-10-(4-aminopyrrolo[2,1-f][1,2,4]triazin-7-yl)-10-cyano-2,6-dioxooctahydro-2H-furo[3,4-b][1,4]dioxonin-8-yl)methyl isobutyrate] | 7880 nM | 35.3 s | 180 s | 6040 nM | > 50 µM | 1 | 2.98 |  |
| CC(C)OC(=O)OC[C@H]1O[C@@](C#N)(c2ccc3c(N)ncnn23)[C@@H]2OC(=O)CCOCCC(=O)O[C@@H]21 [Compound C8, ((9aR,10R,12R,12aR)-12-(4-aminopyrrolo[2,1-f][1,2,4]triazin-7-yl)-12-cyano-2,8-dioxooctahydro-2H,6H-furo[3,4-b][1,4,8]trioxacycloundecin-10-yl)methyl isopropyl carbonate] | > 50000 nM | 41.2 s | 180 s | 3350 nM | > 50 µM | 1.56 | 10.63 |  |
| CCC(=O)OC[C@H]1O[C@@](C#N)(c2ccc3c(N)ncnn23)[C@@H]2OC(=O)CCCC(=O)O[C@@H]21 [Compound C56, ((7aR,8R,10R,10aR)-10-(4-aminopyrrolo[2,1-f][1,2,4]triazin-7-yl)-10-cyano-2,6-dioxooctahydro-2H-furo[3,4-b][1,4]dioxonin-8-yl)methyl propionate] | 4580 nM |  | 180 s | 2300 nM | > 50 µM |  |  |  |
| CCC(CC)COC(=O)OC[C@H]1O[C@@](C#N)(c2ccc3c(N)ncnn23)[C@@H]2OC(=O)CCCC(=O)O[C@@H]21 [Compound C21, ((7aR,8R,10R,10aR)-10-(4-aminopyrrolo[2,1-f][1,2,4]triazin-7-yl)-10-cyano-2,6-dioxooctahydro-2H-furo[3,4-b][1,4]dioxonin-8-yl)methyl (2-ethylbutyl) carbonate] | 1440 nM | 38.2 s | 180 s | 6600 nM | > 50 µM |  |  |  |
| N#CC1(COC(=O)OC[C@H]2O[C@@](C#N)(c3ccc4c(N)ncnn34)[C@@H]3OC(=O)CCCC(=O)O[C@@H]32)CC1 [Compound C24, ((7aR,8R,10R,10aR)-10-(4-aminopyrrolo[2,1-f][1,2,4]triazin-7-yl)-10-cyano-2,6-dioxooctahydro-2H-furo[3,4-b][1,4]dioxonin-8-yl)methyl ((1-cyanocyclopropyl)methyl) carbonate] | 11500 nM | 33.9 s | 180 s | 7760 nM | > 50 µM |  |  |  |
| CC(C)OC(=O)OC[C@H]1O[C@@](C#N)(c2ccc3c(N)ncnn23)[C@@H]2OC(=O)CCC=CCCC(=O)O[C@@H]21 [Compound C9, ((10aR,11R,13R,13aR)-13-(4-aminopyrrolo[2,1-f][1,2,4]triazin-7-yl)-13-cyano-2,9-dioxo-2,3,4,7,8,9,10a,11,13,13a-decahydrofuro[3,4-b][1,4]dioxacyclododecin-11-yl)methyl isopropyl carbonate] | 27500 nM | 39.3 s | 180 s | 3050 nM | > 50 µM | 18.29 | 17.94 |  |
| N#C[C@@]1(c2ccc3c(N)ncnn23)O[C@H](COC(=O)OC2CCCC2)[C@H]2OC(=O)CCCC(=O)O[C@H]21 [Compound C20, ((7aR,8R,10R,10aR)-10-(4-aminopyrrolo[2,1-f][1,2,4]triazin-7-yl)-10-cyano-2,6-dioxooctahydro-2H-furo[3,4-b][1,4]dioxonin-8-yl)methyl cyclopentyl carbonate] | 11700 nM |  | 180 s | 27900 nM | > 50 µM |  |  |  |
| N#C[C@@]1(c2ccc3c(N)ncnn23)O[C@H](COC(=O)OC(CF)CF)[C@H]2OC(=O)CCCC(=O)O[C@H]21 [Compound C27, ((7aR,8R,10R,10aR)-10-(4-aminopyrrolo[2,1-f][1,2,4]triazin-7-yl)-10-cyano-2,6-dioxooctahydro-2H-furo[3,4-b][1,4]dioxonin-8-yl)methyl (1,3-difluoropropan-2-yl) carbonate] | 7400 nM | 37 s | 180 s | 9810 nM | > 50 µM |  |  |  |
| CC(=O)OC[C@H]1O[C@@](C#N)(c2ccc3c(N)ncnn23)[C@@H]2OC(=O)CCCC(=O)O[C@@H]21 [Compound C55, ((7aR,8R,10R,10aR)-10-(4-aminopyrrolo[2,1-f][1,2,4]triazin-7-yl)-10-cyano-2,6-dioxooctahydro-2H-furo[3,4-b][1,4]dioxonin-8-yl)methyl acetate] | 3300 nM |  | 180 s | 2070 nM | > 50 µM |  |  |  |
| N#C[C@@]1(c2ccc3c(N)ncnn23)O[C@H](COC(=O)OC2CCOC2)[C@H]2OC(=O)CCCC(=O)O[C@H]21 (stereo partly drawn) [Compound C23, ((7aR,8R,10R,10aR)-10-(4-aminopyrrolo[2,1-f][1,2,4]triazin-7-yl)-10-cyano-2,6-dioxooctahydro-2H-furo[3,4-b][1,4]dioxonin-8-yl)methyl (tetrahydrofuran-3-yl) carbonate] | 18400 nM | 34.1 s | 180 s | 19900 nM | > 50 µM | 0.66 | 4.38 |  |
| CC(C)OC(=O)OC[C@H]1O[C@@](C#N)(c2ccc3c(N)ncnn23)[C@@H]2OC(=O)CCCCCC(=O)O[C@@H]21 [Compound C6, ((9aR,10R,12R,12aR)-12-(4-aminopyrrolo[2,1-f][1,2,4]triazin-7-yl)-12-cyano-2,8-dioxodecahydro-2H-furo[3,4-b][1,4]dioxacycloundecin-10-yl)methyl isopropyl carbonate] | > 50000 nM | 38.2 s | 180 s | 1460 nM | > 50 µM | 11.12 | 11.68 |  |
